Results from US20180008629A1, “Compositions and Methods for Treating NLRP3 Inflammasome-Related Diseases and Disorders” (priority 2015, published 2018).

Tests used:
NLRP3 inflammasome = NLRP3 inflammasome (Mus musculus, UniProt Q8R4B8); test: NLRP3 inflammasome activation in LPS primed BMDMs (caspase-1 / IL-1β immunoblot); format: cell-based; design: endogenous in cells; host or cells: mouse bone marrow derived macrophages (A1); details: for effect on BHB's suppressive effects on ATP-induced NLRP3 inflammasome activation: co-treatment with BHB; for ATP-induced NLRP3 activation: BMDMs stimulated with LPS and ATP, caspase-1 immunoblot (FIG. 1B); for induction of caspase-1 cleavage by ROS damage: rotenone (10 μM) or hydrogen peroxide
Protocol: All steps were performed using sterile technique. Femurs were collected in RPMI (Life Technologies, Grand Island, N.Y.)+5% FBS (R5; Omega Scientific, Tarzana, Calif.). Both ends of the femur were then cut and the femur was flushed with R5. The bone marrow was centrifuge at 450 g for 5 min, the supernatant was decanted and red blood cells were lysed using ACK lysis buffer (Quality Biological, Gaithersburg, Md.). After neutralization with R5, bone marrow cells were centrifuged, resuspended in 10 ml of R5 and placed into a 6 well plate. Non-adherent cells were collected the following morning. The non-adherent cells were resuspended at 4×10^6 cells/ml in media consisting of 10 ml supernatant of non-adherent cells, 7.2 ml L929 conditioned media, 6.8 ml R5 and MCSF (long/ml; R&D Systems, Minneapolis, Minn.). An additional 2 ml of fresh media was added 4 d after isolation. Non-adherent cells were collected on day 7, separated by density gradient separation using Fico/Lite (Atlanta Biologicals, Flowery Branch, Ga.) and mononuclear cells were collected. Cells were rinsed twice with Dulbecco's PBS+2% FBS, and resuspended at 1×10^6 cells/ml. Cells were treated with ultrapure LPS (Invivogen, San Diego, Calif.) alone or in combination with 5 mM ATP (Sigma, St. Louis, Mo.) or 200 μM palmitate-BSA (Sigma). The BMDMs were also primed with ultrapure lipid A (10 μg/ml; Invivogen, San Diego, Calif.), lipoteichoic acid (10 μg/ml; Invivogen), or Pam3-CSK4 (10 μg/ml; Invivogen) for 4 hour and stimulated with various NLRP3 activators (ATP 5 mM; Sigma, MSU 250 ug/ml; Invivogen, Silica; 200 ug/ml; Invivogen, sodium palmitate; 200 μM; Sigma, ceramide C6 80 μg/ml; Cayman, and sphingosine 40 μM; Cayman, Ann Arbor, Mich.) for 1 hour together with D-BHB or L-(BHB) at indicated concentration. The cell supernatants and cell lysates were collected 1 h after BHB treatment and analyzed for caspase-1 and IL-1β.
The BMDM cell lysates were prepared using RIPA buffer and immediately snap frozen in liquid nitrogen. Samples were left on ice for 1 hour with vortexing every 10 min. Samples were then centrifuge at 14,000 g for 15 min, the supernatant was collected and the protein concentration was determined using the DC Protein Assay (Bio-RAD). […] The immune complexes were visualized by incubation with horseradish peroxidase-conjugated anti-rat or anti-rabbit secondary antibody (Amersham Biosciences). Immunoreactive bands were visualized by enhanced chemiluminescence (PerkinElmer Life Sciences).

Gpr109a = details: Taggart et al., 2005; cited from earlier work
[1] = WT and Gpr109a−/− BMDMs stimulated with LPS and ATP

NLRP3 inflammasome, sequence (Q8R4B8 whole entry): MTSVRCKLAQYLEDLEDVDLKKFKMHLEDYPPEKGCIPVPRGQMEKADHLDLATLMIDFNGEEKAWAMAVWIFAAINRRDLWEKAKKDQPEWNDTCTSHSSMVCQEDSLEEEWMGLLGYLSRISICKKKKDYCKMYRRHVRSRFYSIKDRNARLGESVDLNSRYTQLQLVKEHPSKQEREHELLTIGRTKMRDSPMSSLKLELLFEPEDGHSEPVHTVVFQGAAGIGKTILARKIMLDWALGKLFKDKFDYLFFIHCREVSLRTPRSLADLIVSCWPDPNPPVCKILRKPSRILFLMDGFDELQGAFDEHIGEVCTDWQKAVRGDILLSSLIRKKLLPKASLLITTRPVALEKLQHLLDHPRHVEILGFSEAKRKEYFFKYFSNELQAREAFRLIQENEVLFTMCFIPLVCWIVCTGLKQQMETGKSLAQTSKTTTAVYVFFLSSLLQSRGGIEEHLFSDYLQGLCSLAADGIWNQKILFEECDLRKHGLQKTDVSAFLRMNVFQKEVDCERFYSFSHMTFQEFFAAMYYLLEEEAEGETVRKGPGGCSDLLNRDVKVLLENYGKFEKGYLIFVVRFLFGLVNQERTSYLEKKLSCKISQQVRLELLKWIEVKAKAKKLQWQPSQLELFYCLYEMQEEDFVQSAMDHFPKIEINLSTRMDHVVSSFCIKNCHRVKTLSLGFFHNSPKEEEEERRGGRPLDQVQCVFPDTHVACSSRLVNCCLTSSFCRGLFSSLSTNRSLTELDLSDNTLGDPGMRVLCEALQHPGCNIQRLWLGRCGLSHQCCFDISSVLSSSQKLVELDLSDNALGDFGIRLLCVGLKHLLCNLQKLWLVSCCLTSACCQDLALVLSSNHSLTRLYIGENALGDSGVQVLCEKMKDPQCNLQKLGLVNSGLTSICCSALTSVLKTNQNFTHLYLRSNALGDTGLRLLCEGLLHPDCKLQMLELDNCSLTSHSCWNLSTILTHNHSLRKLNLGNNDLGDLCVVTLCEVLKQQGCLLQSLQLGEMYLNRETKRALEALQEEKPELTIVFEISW

O=CC[C@@H](O)[C@H](O)[C@H](O)CO [2DG, 2-deoxyglucose, reference compound]
mimicking of BHB's anti-inflammasome effect by inhibition of glycolysis (NLRP3 inflammasome; LPS primed BMDMs, ATP, 2-deoxyglucose (1 mM)): did not mimic

Cn1cnc(N)c2ncnc1-2 [3-methyladenine, reference compound]
effect on BHB's suppressive effects on ATP-induced NLRP3 inflammasome activation (NLRP3 inflammasome; LPS primed BMDMs, ATP): did not abrogate

C[C@H](O)CC(=O)O [(S)-BHB, (S)-3-hydroxybutyric acid]
binding to Gpr109a (Gpr109a): high affinity
NLRP3 inflammasome activation (Nlrp3 induced caspase-1 activation) (NLRP3 inflammasome; BMDMs (FIG. 6E)): efficiently blocked
anti-inflammasome activity (NLRP3 inflammasome; [1]): retains anti-inflammasome activity similar to bioactive D-(BHB)
requirement of Gpr109a to block NLRP3 (NLRP3 inflammasome; [1]): does not require

N#C/C(=C\c1ccc(-c2cc(Cl)ccc2Cl)o1)C(=O)Nc1cccc2ncccc12 [AGK2, reference compound]
effect on BHB's suppressive effects on ATP-induced NLRP3 inflammasome activation (NLRP3 inflammasome; LPS primed BMDMs, ATP): did not abrogate

NC(=O)c1ccc[n+]([C@@H]2O[C@H](COP(=O)([O-])OP(=O)(O)OC[C@H]3O[C@@H](n4cnc5c(N)ncnc54)[C@H](O)[C@@H]3O)[C@@H](O)[C@H]2O)c1 [NAD^+, reference compound]
caspase-1 activation in response to LPS and ATP (NLRP3 inflammasome; BMDMs, NAD+ (10 μM)): did not block

CC(=O)O [acetate, reference compound]
ATP-induced NLRP3 activation (NLRP3 inflammasome; 10 mM): did not affect

CC(=O)CC(=O)O [acetoacetate, reference compound]
ATP-induced NLRP3 activation (NLRP3 inflammasome; 10 mM): did not affect
effect on the NLRP3 inflammasome (NLRP3 inflammasome; control and Gpr109a deficient BMDMs, LPS and ATP, 10 mM): neither butyrate nor acetoacetate affect

NOCC(=O)O [aminoxyacetate, reference compound]
effect on BHB's suppressive effects on ATP-induced NLRP3 inflammasome activation (NLRP3 inflammasome; LPS primed BMDMs, ATP): did not affect

CC[C@H](C)[C@H](NC(=O)[C@H]([C@@H](C)CC)N(C)C(C)=O)C(=O)N[C@H](C(=O)N[C@@H](CC(C)C)C(=O)[C@@]1(C)CO1)[C@@H](C)O [epoxomicin, reference compound]
effect on BHB's suppressive effects on ATP-induced NLRP3 inflammasome activation (NLRP3 inflammasome; LPS primed BMDMs, ATP): did not abrogate

OO [hydrogen peroxide, reference compound]
effect on BHB's suppressive effects on ATP-induced NLRP3 inflammasome activation (NLRP3 inflammasome; LPS primed BMDMs, ATP): did not prevent
induction of caspase-1 cleavage by ROS damage (NLRP3 inflammasome; LPS primed BMDMs): not sufficient to induce

O=C(O)c1cccnc1 [niacin, reference compound]
NLRP3 inflammasome activation with GPR109a ligand (NLRP3 inflammasome; BMDMs activated with LPS and ATP, niacin (1 mM)): did not block

C=C(C)[C@H]1Cc2c(ccc3c2O[C@@H]2COc4cc(OC)c(OC)cc4[C@@H]2C3=O)O1 [rotenone, reference compound]
effect on BHB's suppressive effects on ATP-induced NLRP3 inflammasome activation (NLRP3 inflammasome; LPS primed BMDMs, ATP): did not prevent
induction of caspase-1 cleavage by ROS damage (NLRP3 inflammasome; LPS primed BMDMs): not sufficient to induce

CC(/C=C/C(=O)NO)=C\[C@@H](C)C(=O)c1ccc(N(C)C)cc1 [trichostatin A, reference compound]
inflammasome activation with HDAC inhibitor (NLRP3 inflammasome; LPS primed and NLRP3 agonist treated macrophages, TSA (50 nM)): no effects
